Source: patent publication US12384776B2, “Compounds and uses thereof” (Foghorn Therapeutics Inc., priority 2019, dated 2025)

These molecules were tested against Nanoluciferase-BRD9 fusion protein (3×FLAG-NLuc-BRD9) in SYO-1 cells (Homo sapiens (Human), UniProt Q9H8M2) (assay: SYO1 BRD9 NanoLuc degradation assay). Conditions: SYO-1 cells expressing 3×FLAG-NLuc-BRD9, 6 hours incubation, top dose 1 μM.
Format: cell-based
Protocol: Procedure: A stable SYO-1 cell line expressing 3×FLAG-NLuc-BRD9 was generated. On day 0 cells were seeded in 30 μL media into each well of 384-well cell culture plates. The seeding density was 8000 cells/well. On day 1, cells were treated with 30 nL DMSO or 30 nL of 3-fold serially DMSO-diluted compounds (10 points in duplicates with 1 μM as final top dose). Subsequently plates were incubated for 6 hours in a standard tissue culture incubator and equilibrated at room temperature for 15 minutes. Nanoluciferase activity was measured by adding 15 μL of freshly prepared Nano-Glo Luciferase Assay Reagent (Promega N1130), shaking the plates for 10 minutes and reading the bioluminescence using an EnVision reader.
Results: The Inhibition % was calculated using the following formula: % Inhibition=100×(LumHC−LumSample)/(LumHC−LumLC). DMSO treated cells are employed as High Control (HC) and 1 μM of a known BRD9 degrader standard treated cells are employed as Low Control (LC).

Sequence of Nanoluciferase-BRD9 fusion protein (3×FLAG-NLuc-BRD9) in SYO-1 cells (Q9H8M2 whole entry, the tested form may be a part): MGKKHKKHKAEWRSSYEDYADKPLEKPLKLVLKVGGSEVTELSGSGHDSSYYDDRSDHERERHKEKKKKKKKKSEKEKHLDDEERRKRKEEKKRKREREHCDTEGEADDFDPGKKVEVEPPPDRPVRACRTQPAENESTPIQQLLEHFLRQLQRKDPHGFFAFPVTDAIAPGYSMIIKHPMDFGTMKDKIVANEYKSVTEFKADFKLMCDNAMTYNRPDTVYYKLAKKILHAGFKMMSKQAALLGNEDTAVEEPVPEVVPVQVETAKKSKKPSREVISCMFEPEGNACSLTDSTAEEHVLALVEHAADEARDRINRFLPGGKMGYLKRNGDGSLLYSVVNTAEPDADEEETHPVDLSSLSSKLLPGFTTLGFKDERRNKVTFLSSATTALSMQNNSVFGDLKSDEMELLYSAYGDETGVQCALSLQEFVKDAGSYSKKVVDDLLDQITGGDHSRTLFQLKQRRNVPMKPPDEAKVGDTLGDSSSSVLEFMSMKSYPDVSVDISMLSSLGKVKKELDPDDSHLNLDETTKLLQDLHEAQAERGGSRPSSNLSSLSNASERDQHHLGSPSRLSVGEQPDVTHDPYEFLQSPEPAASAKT

| Compound | IC50 |
| --- | --- |
| CNC(=O)N1CCc2c(-c3cc(OC)c(CN4CC5(CC(N)C5)C4)c(OC)c3)cn(C)c(=O)c2C1 [Compound B22] | ≥ 1000 nM |
| CNC(=O)N1CCc2c(-c3cc(OC)c(CN4CCN(C5CNC5)CC4)c(OC)c3)cn(C)c(=O)c2C1 [Compound B23] | ≥ 1000 nM |

Same assay, conditions: SYO-1 cells, 6 hours, Table 6A

| Compound | IC50 |
| --- | --- |
| CNC(=O)N1CCc2c(-c3cc(OC)c(CN4CCN(C(=O)CCCOc5cccc6c5C(=O)N(C5CCC(=O)NC5=O)C6=O)CC4)c(OC)c3)cn(C)c(=O)c2C1 (stereo not drawn) [Compound D1, 5-(4-[[4-(4-[[2-(2,6-dioxopiperidin-3-yl)-1,3-dioxoisoindol-4-yl]oxy]butanoyl)piperazin-1-yl]methyl]-3,5-dimethoxyphenyl)-N,7-dimethyl-8-oxo-3,4-dihydro-1H-2,7-naphthyridine-2-carboxamide] | > 10 nM |
| CNC(=O)N1CCc2c(-c3cc(OC)c(CN4CCN(C(=O)COc5cccc6c5C(=O)N(C5CCC(=O)NC5=O)C6=O)CC4)c(OC)c3)cn(C)c(=O)c2C1 (stereo not drawn) [Compound D2, 5-(4-[[4-(2-[[2-(2,6-dioxopiperidin-3-yl)-1,3-dioxoisoindol-4-yl]oxy]acetyl)piperazin-1-yl]methyl]-3,5-dimethoxyphenyl)-N,7-dimethyl-8-oxo-3,4-dihydro-1H-2,7-naphthyridine-2-carboxamide] | > 10 nM |
| CNC(=O)N1CCc2c(-c3cc(OC)c(CN4CCC5(CC4)CN(C(=O)CCCOc4cccc6c4C(=O)N(C4CCC(=O)NC4=O)C6=O)CCO5)c(OC)c3)cn(C)c(=O)c2C1 (stereo not drawn) [Compound D3, 5-(4-[[4-(4-[[2-(2,6-dioxopiperidin-3-yl)-1,3-dioxoisoindol-4-yl]oxy]butanoyl)-1-oxa-4,9-diazaspiro[5.5]undecan-9-yl]methyl]-3,5-dimethoxyphenyl)-N,7-dimethyl-8-oxo-3,4-dihydro-1H-2,7-naphthyridine-2-carboxamide] | > 100 nM |
| CNC(=O)N1CCc2c(-c3cc(OC)c(CN4CCC5(CC4)CN(C(=O)CCCCOc4cccc6c4C(=O)N(C4CCC(=O)NC4=O)C6=O)CCO5)c(OC)c3)cn(C)c(=O)c2C1 (stereo not drawn) [Compound D4, 5-(4-[[4-(5-[[2-(2,6-dioxopiperidin-3-yl)-1,3-dioxoisoindol-4-yl]oxy]pentanoyl)-1-oxa-4,9-diazaspiro[5.5]undecan-9-yl]methyl]-3,5-dimethoxyphenyl)-N,7-dimethyl-8-oxo-3,4-dihydro-1H-2,7-naphthyridine-2-carboxamide formic acid] | > 10 nM |
| COc1cc(-c2cn(C)c(=O)c3c2CCN(C(=O)NCCOCCOCCNc2cccc4c2CN(C2CCC(=O)NC2=O)C4=O)C3)cc(OC)c1CN(C)C (stereo not drawn) [Compound D5, 5-[4-[(dimethylamino)methyl]-3,5-dimethoxyphenyl]-N-[2-[2-(2-[[2-(2,6-dioxopiperidin-3-yl)-1-oxo-3H-isoindol-4-yl]amino]ethoxy)ethoxy]ethyl]-7-methyl-8-oxo-3,4-dihydro-1H-2,7-naphthyridine-2-carboxamide formic acid] | > 1000 nM |
| COc1cc(-c2cn(C)c(=O)c3c2CCN(C(=O)NCCN(C)CCNc2cccc4c2C(=O)N(C2CCC(=O)NC2=O)C4=O)C3)cc(OC)c1CN(C)C (stereo not drawn) [Compound D6, 5-[4-[(dimethylamino)methyl]-3,5-dimethoxyphenyl]-N-[2-[(2-[[2-(2,6-dioxopiperidin-3-yl)-1,3-dioxoisoindol-4-yl]amino]ethyl)(methyl)amino]ethyl]-7-methyl-8-oxo-3,4-dihydro-1H-2,7-naphthyridine-2-carboxamide] | > 100 nM |
| COc1cc(-c2cn(C)c(=O)c3c2CCN(C(=O)NCCN(C)CCNC(=O)COc2cccc4c2C(=O)N(C2CCC(=O)NC2=O)C4=O)C3)cc(OC)c1CN(C)C (stereo not drawn) [Compound D8, N-(2-[[2-(5-[4-[(dimethylamino)methyl]-3,5-dimethoxyphenyl]-7-methyl-8-oxo-3,4-dihydro-1H-2,7-naphthyridine-2-carbonylamino)ethyl](methyl)amino]ethyl)-2-[[2-(2,6-dioxopiperidin-3-yl)-1,3-dioxoisoindol-4-yl]oxy]acetamide formic acid] | > 100 nM |
| COc1cc(-c2cn(C)c(=O)c3c2CCN(C(=O)NCCCCCCCCNc2ccc4c(c2)C(=O)N(C2CCC(=O)NC2=O)C4=O)C3)cc(OC)c1CN(C)C (stereo not drawn) [Compound D9, 5-(4-((dimethylamino)methyl)-3,5-dimethoxyphenyl)-N-(8-((2-(2,6-dioxopiperidin-3-yl)-1,3-dioxoisoindolin-5-yl)amino)octyl)-7-methyl-8-oxo-3,4,7,8-tetrahydro-2,7-naphthyridine-2 (1H)-carboxamide formic acid] | < 10 nM |
| COc1cc(-c2cn(C)c(=O)c3c2CCN(C(=O)NCCCCCCCCNC(=O)COc2cccc4c2C(=O)N(C2CCC(=O)NC2=O)C4=O)C3)cc(OC)c1CN(C)C (stereo not drawn) [Compound D10, 5-(4-((dimethylamino)methyl)-3,5-dimethoxyphenyl)-N-(8-(2-((2-(2,6-dioxopiperidin-3-yl)-1,3-dioxoisoindolin-4-yl)oxy)acetamido)octyl)-7-methyl-8-oxo-3,4,7,8-tetrahydro-2,7-naphthyridine-2 (1H)-carboxamide formic acid] | > 100 nM |
| COc1cc(-c2cn(C)c(=O)c3c2CCN(C(=O)NCCCCCNc2cccc4c2C(=O)N(C2CCC(=O)NC2=O)C4=O)C3)cc(OC)c1CN(C)C (stereo not drawn) [Compound D11, 5-(4-((dimethylamino)methyl)-3,5-dimethoxyphenyl)-N-(5-((2-(2,6-dioxopiperidin-3-yl)-1,3-dioxoisoindolin-4-yl)amino)pentyl)-7-methyl-8-oxo-3,4,7,8-tetrahydro-2,7-naphthyridine-2 (1H)-carboxamide formic acid] | > 10 nM |
| CNC(=O)N1CCc2c(-c3cc(OC)c(CN(C)CC(=O)NCCOCCOc4cccc5c4C(=O)N(C4CCC(=O)NC4=O)C5=O)c(OC)c3)cn(C)c(=O)c2C1 (stereo not drawn) [Compound D13, 5-(4-[[([[2-(2-[[2-(2,6-dioxopiperidin-3-yl)-1,3-dioxoisoindol-4-yl]oxy]ethoxy)ethyl]carbamoyl]methyl)(methyl)amino]methyl]-3,5-dimethoxyphenyl)-N,7-dimethyl-8-oxo-3,4-dihydro-1H-2,7-naphthyridine-2-carboxamide] | > 1000 nM |
| CNC(=O)N1CCc2c(-c3cc(OC)c(CN4CC(NC(=O)CCCCCOc5cccc6c5C(=O)N(C5CCC(=O)NC5=O)C6=O)C4)c(OC)c3)cn(C)c(=O)c2C1 (stereo not drawn) [Compound D16, 5-(4-[[3-(6-[[2-(2,6-dioxopiperidin-3-yl)-1,3-dioxoisoindol-4-yl]oxy]hexanamido)azetidin-1-yl]methyl]-3,5-dimethoxyphenyl)-N,7-dimethyl-8-oxo-3,4-dihydro-1H-2,7-naphthyridine-2-carboxamide formic acid] | > 10 nM |

Same assay, conditions: SYO-1 cells, 6 hours, Table 6A; read-out: SYO1 BRD9-NanoLuc degradation IC50

| Compound | DC50 |
| --- | --- |
| COc1cc(-c2cn(C)c(=O)c3c2CCN(C(=O)NCCS(=O)(=O)CCNc2cccc4c2C(=O)N(C2CCC(=O)NC2=O)C4=O)C3)cc(OC)c1CN(C)C (stereo not drawn) [Compound D7, 5-[4-[(dimethylamino)methyl]-3,5-dimethoxyphenyl]-N-[2-(2-[[2-(2,6-dioxopiperidin-3-yl)-1,3-dioxoisoindol-4-yl]amino]ethanesulfonyl)ethyl]-7-methyl-8-oxo-3,4-dihydro-1H-2,7-naphthyridine-2-carboxamide formic acid] | > 10 nM |
